Results reported in patent publication US10105357B2, “Indication of antibiotic drugs for preparation of cancer inhibition pharmaceutical composition” (LAUNX BIOMEDICAL CO., LTD., priority 2014, dated 2018).
Counter-ions that a name gives are not always drawn. Like-named read-outs stand apart in the source and are kept apart here.

Experiments:
[1] = test system: cancer cell lines; assay: Cell viability analysis (WST-1) on cancer cell lines; assay type: cell-based, human; conditions: drug 10 μM, 72 hours, WST-1; Table 3
[2] = test system: HI650 (Lung Adenocarcinoma); assay: Cell viability analysis, lung cancer HI650; assay type: cell-based, human; conditions: Homo sapiens, NCI-H1650, 72 h
[3] = test system: A549 (Lung Adenocarcinoma); assay: Cell viability analysis, lung cancer A549; assay type: cell-based, human; conditions: Homo sapiens, A549, 72 h
[4] = test system: AGS (Gastric Adenocarcinoma); assay: Cell viability analysis, gastric cancer AGS; assay type: cell-based, human; conditions: Homo sapiens, 72 h
[5] = test system: MKN-45 (Gastric Adenocarcinoma); assay: Cell viability analysis, gastric cancer MKN-45; assay type: cell-based, human; conditions: Homo sapiens, MKN-45, 72 h
[6] = test system: HepG2 (Hepatocellular Carcinoma); assay: Cell viability analysis, hepatic cancer HepG2; assay type: cell-based, human; conditions: Homo sapiens, HepG2, 72 h
[7] = test system: Hep3B (hepatocellular carcinoma); assay: Cell viability analysis, hepatic cancer Hep3B; assay type: cell-based, human; conditions: Homo sapiens, Hep3B, 72 h, read-out: The results of antibiotic drug inhibiting cancer cell lines (cell viability analysis), Hep3B
[8] = test system: LoVo (Colorectal Adenocarcinoma); assay: Cell viability analysis, colon cancer LoVo; assay type: cell-based, human; conditions: Homo sapiens, LoVo, 72 h
[9] = test system: A375 (Amelanotic Melanoma); assay: Cell viability analysis, skin cancer A375; assay type: cell-based, human; conditions: Homo sapiens, A-375, 72 h
[10] = test system: HeLa (Cervix Adenocarcinoma); assay: Cell viability analysis, cervical cancer HeLa; assay type: cell-based, human; conditions: Homo sapiens, HeLa, 72 h
[11] = test system: C-33A (Cervical carcinoma); assay: Cell viability analysis, cervical cancer C-33A; assay type: cell-based, human; conditions: Homo sapiens, C-33-A, 72 h, read-out: The results of antibiotic drug inhibiting cancer cell lines (cell viability analysis), C-33A
[12] = test system: PC3 (p53−) (Prostate Adenocarcinoma); assay: Cell viability analysis, prostate cancer PC3; assay type: cell-based, human; conditions: Homo sapiens, 72 h
[13] = test system: TSGH-8301 (Urinary Bladder Carcinoma); assay: Cell viability analysis, bladder cancer TSGH-8301; assay type: cell-based, human; conditions: Homo sapiens, 72 h
[14] = test system: MCF7 (Mammary Gland, Adenocarcinoma); assay: Cell viability analysis, breast cancer MCF7; assay type: cell-based, human; conditions: Homo sapiens, MCF7, 72 h
[15] = test system: MDA-MB-231 (Mammary Gland, Adenocarcinoma); assay: Cell viability analysis, breast cancer MDA-MB-231; assay type: cell-based, human; conditions: Homo sapiens, MDA-MB-231, 72 h, read-out: The results of antibiotic drug inhibiting cancer cell lines (cell viability analysis), MDA-MB231
[16] = test system: BxPC-3; assay: Cell viability analysis, pancreatic cancer BxPC-3; assay type: cell-based, human; conditions: Homo sapiens, BXPC-3, 72 h, read-out: The results of antibiotic drug inhibiting cancer cell lines (cell viability analysis), BxPC-3
[17] = test system: AsPC-1; assay: Cell viability analysis, pancreatic cancer AsPC-1; assay type: cell-based, human; conditions: Homo sapiens, ASPC1, 72 h, read-out: The results of antibiotic drug inhibiting cancer cell lines (cell viability analysis), AsPC-1
[18] = test system: NIH: OVCAR-3; assay: Cell viability analysis, ovarian cancer NIH: OVCAR-3; assay type: cell-based, human; conditions: Homo sapiens, OVCAR-3, 72 h, read-out: The results of antibiotic drug inhibiting cancer cell lines (cell viability analysis), NIH-OVCAR-3
[19] = test system: TOV-21G; assay: Cell viability analysis, ovarian cancer TOV-21G; assay type: cell-based, human; conditions: Homo sapiens, TOV21G, 72 h, read-out: The results of antibiotic drug inhibiting cancer cell lines (cell viability analysis), TOV-21G
[20] = test system: SAS (Tongue squamous cell carcinoma); assay: Cell viability analysis, tongue cancer SAS; assay type: cell-based, human; conditions: Homo sapiens, 72 h, read-out: The results of antibiotic drug inhibiting cancer cell lines (cell viability analysis), SAS
[21] = test system: U-2OS; assay: Cell viability analysis, osteosarcoma U-2OS; assay type: cell-based, human; conditions: Homo sapiens, U2OS, 72 h, read-out: The results of antibiotic drug inhibiting cancer cell lines (cell viability analysis), U2OS
[22] = test system: 786-O (Renal adenocarcinoma); assay: Cell viability analysis, renal cancer 786-O; assay type: cell-based, human; conditions: Homo sapiens, 786-0, 72 h, read-out: The results of antibiotic drug inhibiting cancer cell lines (cell viability analysis), 786-O
[23] = test system: HL-60 (Acute Promyelocytic Leukemia); assay: Cell viability analysis, leukemia HL-60; assay type: cell-based, human; conditions: Homo sapiens, HL-60, 72 h, read-out: cell viability (survival rate), HL-60, drug 10 μM, 72 hours, WST-1, OD450 nm
[24] = test system: HCT116 (p53+) (Colorectal Carcinoma)
[25] = read-out: The results of antibiotic drug inhibiting cancer cell lines (cell viability analysis), H1650, H1650, repeated experiment
[26] = read-out: cell viability (survival rate), H1650, drug 10 μM, 72 hours, WST-1, OD450 nm
[27] = read-out: The results of antibiotic drug inhibiting cancer cell lines (cell viability analysis), A549, A549, repeated experiment
[28] = read-out: cell viability (survival rate), A549, drug 10 μM, 72 hours, WST-1, OD450 nm
[29] = read-out: The results of antibiotic drug inhibiting cancer cell lines (cell viability analysis), AGS, repeated experiment
[30] = read-out: cell viability (survival rate), AGS, drug 10 μM, 72 hours, WST-1, OD450 nm
[31] = read-out: The results of antibiotic drug inhibiting cancer cell lines (cell viability analysis), MKN-45, MKN-45, repeated experiment
[32] = read-out: cell viability (survival rate), MKN-45, drug 10 μM, 72 hours, WST-1, OD450 nm
[33] = read-out: The results of antibiotic drug inhibiting cancer cell lines (cell viability analysis), HepG2, HepG2, repeated experiment
[34] = read-out: cell viability (survival rate), HepG2, drug 10 μM, 72 hours, WST-1, OD450 nm
[35] = read-out: The results of antibiotic drug inhibiting cancer cell lines (cell viability analysis), LoVo, repeated experiment
[36] = read-out: cell viability (survival rate), LoVo, drug 10 μM, 72 hours, WST-1, OD450 nm
[37] = read-out: The results of antibiotic drug inhibiting cancer cell lines (cell viability analysis), A375, A375, repeated experiment
[38] = read-out: cell viability (survival rate), A375, drug 10 μM, 72 hours, WST-1, OD450 nm
[39] = read-out: The results of antibiotic drug inhibiting cancer cell lines (cell viability analysis), HeLa, repeated experiment
[40] = read-out: cell viability (survival rate), HeLa, drug 10 μM, 72 hours, WST-1, OD450 nm
[41] = read-out: The results of antibiotic drug inhibiting cancer cell lines (cell viability analysis), PC-3, PC-3, repeated experiment
[42] = read-out: cell viability (survival rate), PC3, drug 10 μM, 72 hours, WST-1, OD450 nm
[43] = read-out: The results of antibiotic drug inhibiting cancer cell lines (cell viability analysis), TSGH-8301, TSGH-8301, repeated experiment
[44] = read-out: cell viability (survival rate), TSGH, drug 10 μM, 72 hours, WST-1, OD450 nm
[45] = read-out: The results of antibiotic drug inhibiting cancer cell lines (cell viability analysis), MCF-7, MCF-7, repeated experiment
[46] = read-out: cell viability (survival rate), MCF7, drug 10 μM, 72 hours, WST-1, OD450 nm

| Structure (SMILES) | inhibition effect on different cancer cell lines [1] | viability at 10 µM [2, 25] [%] | viability at 10 µM [2, 26] [%] | viability at 10 µM [3, 27] [%] | viability at 10 µM [3, 28] [%] | viability at 10 µM [4, 29] [%] | viability at 10 µM [4, 30] [%] | viability at 10 µM [5, 31] [%] | viability at 10 µM [5, 32] [%] | viability at 10 µM [6, 33] [%] | viability at 10 µM [6, 34] [%] | viability at 10 µM [7] [%] | viability at 10 µM [8, 35] [%] | viability at 10 µM [8, 36] [%] | viability at 10 µM [9, 37] [%] | viability at 10 µM [9, 38] [%] | viability at 10 µM [10, 39] [%] | viability at 10 µM [10, 40] [%] | viability at 10 µM [11] [%] | viability at 10 µM [12, 41] [%] | also measured |
| --- | --- | --- | --- | --- | --- | --- | --- | --- | --- | --- | --- | --- | --- | --- | --- | --- | --- | --- | --- | --- | --- |
| Cc1ncc([N+](=O)[O-])n1CCO [Metronidazole (Flagyl), Metronidazole] | significant inhibition effect | 87.2 | 94.9 | 97.7 | 36.5 | 113 | 90.5 | 108 | 57.7 | 94.1 | 105 | 92.3 | 118 | 61.1 | 74.7 | 56.4 | 75.3 | 90.7 | 114 | 95.6 | viability at 10 µM [12, 42]: 40.9%; viability at 10 µM [13, 43]: 92.4%; viability at 10 µM [13, 44]: 62%; viability at 10 µM [14, 45]: 77.3%; viability at 10 µM [14, 46]: 43.8%; viability at 10 µM [15]: 93.3%; viability at 10 µM [16]: 83.6%; viability at 10 µM [17]: 83.1%; viability at 10 µM [18]: 110%; viability at 10 µM [19]: 95.8%; viability at 10 µM [20]: 112%; viability at 10 µM [21]: 99.6%; viability at 10 µM [22]: 92%; viability at 10 µM [23]: 90.8%; viability [24]: 98.9% |
| Clc1ccc(C(Cn2ccnc2)OCc2ccsc2Cl)c(Cl)c1 (stereo not drawn) [Tioconazole] | significant inhibition effect | 90.3 | 72.9 | 100 | 47.6 | 120 | 82.7 | 99.9 | 61 | 109 | 100 | 120 | 99.8 | 83.2 | 97.8 | 60.9 | 96.9 | 58.5 | 114 | 104 | viability at 10 µM [12, 42]: 40.7%; viability at 10 µM [13, 43]: 105%; viability at 10 µM [13, 44]: 68.1%; viability at 10 µM [14, 45]: 97.8%; viability at 10 µM [14, 46]: 48%; viability at 10 µM [15]: 103%; viability at 10 µM [16]: 69.2%; viability at 10 µM [17]: 80.1%; viability at 10 µM [18]: 92.5%; viability at 10 µM [19]: 78.5%; viability at 10 µM [20]: 93.6%; viability at 10 µM [21]: 92.4%; viability at 10 µM [22]: 75.6%; viability at 10 µM [23]: 57.1%; viability [24]: 103% |
| CN(C)[C@@H]1C(O)=C(C(N)=O)C(=O)[C@@]2(O)C(O)=C3C(=O)c4c(O)ccc(Cl)c4[C@@](C)(O)[C@H]3C[C@@H]12 [Chlortetracycline HCl] | significant inhibition effect | 88.5 | 59.9 | 99.3 | 45.8 | 99.9 | 69.7 | 142 | 43 | 113 | 75 | 117 | 74.4 | 61.4 | 108 | 49.2 | 84 | 83.9 | 88 | 108 | viability at 10 µM [12, 42]: 38.2%; viability at 10 µM [13, 43]: 152%; viability at 10 µM [13, 44]: 50.4%; viability at 10 µM [14, 45]: 93.4%; viability at 10 µM [14, 46]: 32.2%; viability at 10 µM [15]: 83.2%; viability at 10 µM [16]: 63.7%; viability at 10 µM [17]: 82.1%; viability at 10 µM [18]: 99.3%; viability at 10 µM [19]: 92.2%; viability at 10 µM [20]: 97.4%; viability at 10 µM [21]: 80.3%; viability at 10 µM [22]: 91.4%; viability at 10 µM [23]: 83.9%; viability [24]: 91.5% |
